Earlier results on 2 compounds are cited in US9682147B2, “Self-preserved oil dispersions comprising boric acid” (SANTEN SAS, priority 2012, dated 2017).

Like-named read-outs stand apart in the source and are kept apart here.

Data set [1] has as its system corneal and epithelial cells.
In the next data set the test system is corneal cells. As to conditions: boric acid used in cleaning contact lenses solutions.
For data set [2] the following is noted: solution comprising 1.2% w/w of borate.

Consider `OB(O)O` [boric acid], for which the “Toxicity to corneal and epithelial cells” value was “toxic” in data set [1] (0.5% to 1% boric acid) and “safe” in data set [1] (concentration of 0.1% boric acid). For the same compound, the Corneal cytotoxicity result in the data set with corneal cells was “strong corneal cytotoxicity”.

Regarding borate, in data set [2], the Antimicrobial activity result was “some antimicrobial activity” and the “Criteria for antimicrobial effectiveness given by USP” value is “not sufficient to meet the criteria”.
